One test has as its system E. coli ATCC 25922. Description: microbe, parasite or virus in culture. The settings on record: Escherichia coli, ATCC25922, read-out: MIC E. coli 25922. The test is classed as cell-based.
The subject of a further test is K. pneumoniae 848844. Description: microbe, parasite or virus in culture. The test is classed as cell-based. Conditions: Klebsiella pneumoniae, 848844, read-out: MIC K. pneumoniae 848844.
Another test has as its system P. aeruginosa ATCC 27853. Description: microbe, parasite or virus in culture. The test is classed as cell-based. Conditions: Pseudomonas aeruginosa, ATCC27853, read-out: MIC P. aeruginosa ATCC 27853.
Test [1] relates to N. gonorrhoeae ATCC 49226. Nature of the test: Liquid broth MIC in Fastidious broth. Conditions: Neisseria gonorrhoeae.
For a further test, the system named is N. gonorrhoeae WHO M. Nature of the test: Liquid broth MIC in Fastidious broth. The settings on record: Neisseria gonorrhoeae.
Another test deals with N. gonorrhoeae WHO Z. Nature of the test: Liquid broth MIC in Fastidious broth. Conditions: Neisseria gonorrhoeae.
For a further test, the system named is N. gonorrhoeae WHO Q. Nature of the test: Liquid broth MIC in Fastidious broth. The settings on record: Neisseria gonorrhoeae.
The target in test [2] is T1, PBP1a from Acinetobacter baumannii (ATCC 19606) (Acinetobacter baumannii, UniProt A0ABX6CK30).
T1 sequence (A0ABX6CK30 1-851): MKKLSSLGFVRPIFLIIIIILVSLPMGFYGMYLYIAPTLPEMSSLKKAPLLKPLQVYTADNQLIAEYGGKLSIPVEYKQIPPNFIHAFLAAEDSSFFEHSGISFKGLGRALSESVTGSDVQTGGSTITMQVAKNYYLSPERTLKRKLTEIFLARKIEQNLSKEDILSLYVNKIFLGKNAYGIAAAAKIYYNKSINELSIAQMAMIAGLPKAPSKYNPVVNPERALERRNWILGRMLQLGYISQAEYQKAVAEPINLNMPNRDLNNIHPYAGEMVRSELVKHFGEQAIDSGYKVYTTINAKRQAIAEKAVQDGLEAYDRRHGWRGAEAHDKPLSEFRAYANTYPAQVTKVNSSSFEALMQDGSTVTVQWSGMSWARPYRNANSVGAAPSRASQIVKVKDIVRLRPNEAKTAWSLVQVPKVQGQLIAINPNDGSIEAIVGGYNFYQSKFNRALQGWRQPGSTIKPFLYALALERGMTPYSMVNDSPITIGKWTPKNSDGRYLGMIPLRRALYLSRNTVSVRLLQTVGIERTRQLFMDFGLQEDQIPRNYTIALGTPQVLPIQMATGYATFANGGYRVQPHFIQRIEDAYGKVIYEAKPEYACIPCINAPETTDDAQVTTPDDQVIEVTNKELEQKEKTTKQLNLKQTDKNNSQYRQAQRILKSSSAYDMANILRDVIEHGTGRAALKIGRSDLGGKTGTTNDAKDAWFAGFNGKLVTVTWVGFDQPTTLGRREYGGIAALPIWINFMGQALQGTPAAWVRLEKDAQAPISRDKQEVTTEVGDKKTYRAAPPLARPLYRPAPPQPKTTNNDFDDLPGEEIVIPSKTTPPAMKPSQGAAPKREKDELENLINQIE
Nature of the test: Bocillin-FL fluorescence polarization competition binding, A. baumannii PBP1a. Conditions: fluorescence polarization competition binding assay using Bocillin-FL; read-out: A. baumannii PBP1a Potency. An outline of the steps:
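Purified PBPs pre-incubated with inhibitor (E. coli PBP3 1.5 μM, 30 min; P. aeruginosa PBP3 0.75 μM, A. baumannii PBP1a 1 μM and PBP3 0.2 μM, 15 min), then Bocillin-FL 0.1 μM (0.05 μM for PBP1a) added; FP read up to 60 min. EC50 = concentration halving bound Bocillin-FL.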
On the technique in general: Polarisation of emitted light reports the rotation of a fluorescent probe.

Where [3] appears, read: ATCC49226, read-out: Minimum Inhibitory Concentration (MIC), N. gonorrhoeae ATCC 49226.
[4] abbreviates: read-out: Minimum Inhibitory Concentration (MIC), N. gonorrhoeae WHO M.
The mark [5] stands for this setting: read-out: Minimum Inhibitory Concentration (MIC), N. gonorrhoeae WHO Z.
The mark [6] stands for this setting: read-out: Minimum Inhibitory Concentration (MIC), N. gonorrhoeae WHO Q.
The mark [7] stands for this setting: ATCC49226, read-out: Minimum Inhibitory Concentration, ATCC 49226.
Where [8] appears, read: read-out: Minimum Inhibitory Concentration, WHO M.
The mark [9] stands for this setting: read-out: Minimum Inhibitory Concentration, WHO Z.
Setting [10] is: read-out: Minimum Inhibitory Concentration, WHO Q.

≈ marks a conversion by molar mass, not a printed value. Where two headings read alike, the source gives them in different places.

With `CS(=O)(=O)N1CCN(C(=O)N[C@H](C(=O)N[C@H]2Cc3cccc(C(=O)O)c3OB2O)c2ccc(P(=O)(O)O)cc2)C1=O` (single isomer, unassigned) [Example 5], the MIC in the test on E. coli ATCC 25922 was over 128 µg/mL; with K. pneumoniae 848844, over 128 µg/mL; in the test with P. aeruginosa ATCC 27853, over 128 µg/mL; in test [1] (setting [3]), under 1 µg/mL; with N. gonorrhoeae WHO M (setting [4]) it was under 1 µg/mL; in the test on N. gonorrhoeae WHO Z (setting [5]), under 1 µg/mL. In the test on N. gonorrhoeae WHO Q (setting [6]), the MIC was under 1 µg/mL.
As for `CS(=O)(=O)N1CCN(C(=O)N[C@@H](C(=O)N[C@H]2Cc3cccc(C(=O)O)c3OB2O)c2ccc(P(=O)(O)O)cc2)C1=O` (single isomer, unassigned) [Example 6], the MIC with E. coli ATCC 25922 is 32 to 64 µg/mL (≈ 52.4 to 105 µM); in the test on K. pneumoniae 848844, over 128 µg/mL; in the test with P. aeruginosa ATCC 27853, over 128 µg/mL; in test [1] (setting [3]), under 1 µg/mL; with N. gonorrhoeae WHO M (setting [4]) it was under 1 µg/mL; with N. gonorrhoeae WHO Z (setting [5]) it was under 1 µg/mL. In addition, the MIC in the test with N. gonorrhoeae WHO Q (setting [6]) is under 1 µg/mL.
On to `CCN1CCN(C(=O)NC(C(=O)N[C@H]2Cc3cccc(C(=O)O)c3OB2O)c2ccc(P(=O)(O)O)cc2F)C(=O)C1=O` (stereo partly drawn) [Example 1, (3R)-3-(2-(4-ethyl-2,3-dioxopiperazine-1-carboxamido)-2-(2-fluoro-4-phosphonophenyl)acetamido)-2-hydroxy-3,4-dihydro-2H-benzo[e][1,2]oxaborinine-8-carboxylic acid], for which the MIC was over 128 µg/mL in the test on E. coli ATCC 25922; over 128 µg/mL in the test on K. pneumoniae 848844; over 128 µg/mL in the test with P. aeruginosa ATCC 27853; under 1 µg/mL in test [1] (setting [3]); under 1 µg/mL in the test on N. gonorrhoeae WHO M (setting [4]); under 1 µg/mL in the test with N. gonorrhoeae WHO Z (setting [5]). The MIC in the test on N. gonorrhoeae WHO Q (setting [6]) is under 1 µg/mL.
For the compound `CCN1CCN(C(=O)NC(C(=O)N[C@H]2Cc3cccc(C(=O)O)c3OB2O)c2cc(P(=O)(O)O)ccc2F)C(=O)C1=O` (stereo partly drawn) [Example 2, (3R)-3-(2-(4-ethyl-2,3-dioxopiperazine-1-carboxamido)-2-(2-fluoro-5-phosphonophenyl)acetamido)-2-hydroxy-3,4-dihydro-2H-benzo[e][1,2]oxaborinine-8-carboxylic acid], the MIC in the test with E. coli ATCC 25922 was over 128 µg/mL; in the test with K. pneumoniae 848844 it was over 128 µg/mL; in the test on P. aeruginosa ATCC 27853 it was over 128 µg/mL; in test [1] (setting [3]) it was 4 to 8 µg/mL (≈ 6.6 to 13.2 µM); in the test with N. gonorrhoeae WHO M (setting [4]), 4 to 8 µg/mL (≈ 6.6 to 13.2 µM); with N. gonorrhoeae WHO Z (setting [5]), 4 to 8 µg/mL (≈ 6.6 to 13.2 µM). Besides, the MIC in the test with N. gonorrhoeae WHO Q (setting [6]) lay within 4 to 8 µg/mL (≈ 6.6 to 13.2 µM).
As for `NCCN1CCN(C(=O)NC(C(=O)N[C@H]2Cc3cccc(C(=O)O)c3OB2O)c2ccc(P(=O)(O)O)cc2)C(=O)C1=O` (stereo partly drawn) [Example 3, (3R)-3-(2-(4-(2-aminoethyl)-2,3-dioxopiperazine-1-carboxamido)-2-(4-phosphonophenyl)acetamido)-2-hydroxy-3,4-dihydro-2H-benzo[e][1,2]oxaborinine-8-carboxylic acid], the MIC is 32 to 64 µg/mL (≈ 53 to 106 µM) with E. coli ATCC 25922; over 128 µg/mL in the test on K. pneumoniae 848844; over 128 µg/mL in the test on P. aeruginosa ATCC 27853; under 1 µg/mL in test [1] (setting [3]); under 1 µg/mL with N. gonorrhoeae WHO M (setting [4]); 1 to 2 µg/mL (≈ 1.66 to 3.32 µM) in the test on N. gonorrhoeae WHO Z (setting [5]). For the same compound, the MIC with N. gonorrhoeae WHO Q (setting [6]) lay in the range of 1 to 2 µg/mL (≈ 1.66 to 3.32 µM).
Turning to `O=C(O)c1cccc2c1OB(O)[C@@H](NC(=O)C(NC(=O)N1CCN(CC(F)(F)F)C(=O)C1=O)c1ccc(P(=O)(O)O)cc1)C2` (stereo partly drawn) [Example 4, (3R)-3-(2-(2,3-dioxo-4-(2,2,2-trifluoroethyl)piperazine-1-carboxamido)-2-(4-phosphonophenyl)acetamido)-2-hydroxy-3,4-dihydro-2H-benzo[e][1,2]oxaborinine-8-carboxylic acid], the MIC in the test with E. coli ATCC 25922 is over 128 µg/mL; in the test with K. pneumoniae 848844 it was over 128 µg/mL; with P. aeruginosa ATCC 27853, over 128 µg/mL; in test [1] (setting [3]) it was under 1 µg/mL; in the test on N. gonorrhoeae WHO M (setting [4]), under 1 µg/mL; in the test with N. gonorrhoeae WHO Z (setting [5]), 1 to 2 µg/mL (≈ 1.56 to 3.11 µM). Besides, in the test on N. gonorrhoeae WHO Q (setting [6]), the MIC lay in the range of 1 to 2 µg/mL (≈ 1.56 to 3.11 µM).
`O=C(NCCCN1CCN(C(=O)N[C@@H](C(=O)N[C@H]2Cc3ccc(F)c(C(=O)O)c3OB2O)c2cc(F)c(O)c(O)c2Cl)C(=O)C1=O)c1cccc(O)c1Cl` [Example 303, (R)-3-((R)-2-(4-(3-(2-chloro-3-hydroxybenzamido)propyl)-2,3-dioxopiperazine-1-carboxamido)-2-(2-chloro-5-fluoro-3,4-dihydroxyphenyl)acetamido)-7-fluoro-2-hydroxy-3,4-dihydro-2H-benzo[e][1,2]oxaborinine-8-carboxylic acid]: the IC50 in test [2] was over 250 µM. Besides, the MIC in test [1] (setting [7]) was 4 to 8 µg/mL (≈ 5.04 to 10.1 µM); in the test with N. gonorrhoeae WHO M (setting [8]), 4 to 8 µg/mL (≈ 5.04 to 10.1 µM); in the test with N. gonorrhoeae WHO Z (setting [9]) it was 16 to 32 µg/mL (≈ 20.1 to 40.3 µM); in the test with N. gonorrhoeae WHO Q (setting [10]) it was over 64 µg/mL.
With `O=C(NCCCN1CCN(C(=O)NC(C(=O)N[C@H]2Cc3ccc(F)c(C(=O)O)c3OB2O)c2cc(F)c(O)c(O)c2Cl)C(=O)C1=O)c1ccc(O)c(F)c1` (stereo partly drawn) [Example 304, (3R)-3-(2-(2-chloro-5-fluoro-3,4-dihydroxyphenyl)-2-(4-(3-(3-fluoro-4-hydroxybenzamido)propyl)-2,3-dioxopiperazine-1-carboxamido)acetamido)-7-fluoro-2-hydroxy-3,4-dihydro-2H-benzo[e][1,2]oxaborinine-8-carboxylic acid], the IC50 in test [2] was over 250 µM. Moreover, the MIC was 16 to 32 µg/mL (≈ 20.6 to 41.1 µM) in test [1] (setting [7]), 16 to 32 µg/mL (≈ 20.6 to 41.1 µM) in the test with N. gonorrhoeae WHO M (setting [8]), over 64 µg/mL with N. gonorrhoeae WHO Z (setting [9]) and over 64 µg/mL with N. gonorrhoeae WHO Q (setting [10]).
For the compound `O=C(NCCCN1CCN(C(=O)NC(C(=O)N[C@H]2Cc3ccc(F)c(C(=O)O)c3OB2O)c2cc(F)c(O)c(O)c2Cl)C(=O)C1=O)c1ccc(O)c(Cl)c1` (stereo partly drawn) [Example 305, (3R)-3-(2-(4-(3-(3-chloro-4-hydroxybenzamido)propyl)-2,3-dioxopiperazine-1-carboxamido)-2-(2-chloro-5-fluoro-3,4-dihydroxyphenyl)acetamido)-7-fluoro-2-hydroxy-3,4-dihydro-2H-benzo[e][1,2]oxaborinine-8-carboxylic acid], the IC50 in test [2] is over 250 µM. Moreover, the MIC in test [1] (setting [7]) is 16 to 32 µg/mL (≈ 20.1 to 40.3 µM); in the test on N. gonorrhoeae WHO M (setting [8]) it was 16 to 32 µg/mL (≈ 20.1 to 40.3 µM); in the test on N. gonorrhoeae WHO Z (setting [9]), over 64 µg/mL; in the test with N. gonorrhoeae WHO Q (setting [10]), over 64 µg/mL.
Take `O=C(NCCCN1CCN(C(=O)NC(C(=O)N[C@H]2Cc3ccc(F)c(C(=O)O)c3OB2O)c2cc(F)c(O)c(O)c2Cl)C(=O)C1=O)c1ccc(O)c(F)c1F` (stereo partly drawn) [Example 306, (3R)-3-(2-(2-chloro-5-fluoro-3,4-dihydroxyphenyl)-2-(4-(3-(2,3-difluoro-4-hydroxybenzamido)propyl)-2,3-dioxopiperazine-1-carboxamido)acetamido)-7-fluoro-2-hydroxy-3,4-dihydro-2H-benzo[e][1,2]oxaborinine-8-carboxylic acid]: the IC50 in test [2] is over 250 µM. For the same compound, the MIC in test [1] (setting [7]) was 16 to 32 µg/mL (≈ 20.1 to 40.2 µM); with N. gonorrhoeae WHO M (setting [8]) it was 16 to 32 µg/mL (≈ 20.1 to 40.2 µM); in the test on N. gonorrhoeae WHO Z (setting [9]), over 64 µg/mL; in the test with N. gonorrhoeae WHO Q (setting [10]) it was over 64 µg/mL.
Consider `O=C(NCCCN1CCN(C(=O)NC(C(=O)N[C@H]2Cc3ccc(F)c(C(=O)O)c3OB2O)c2cc(F)c(O)c(O)c2Cl)C(=O)C1=O)c1ccc(O)cc1O` (stereo partly drawn) [Example 307, (3R)-3-(2-(2-chloro-5-fluoro-3,4-dihydroxyphenyl)-2-(4-(3-(2,4-dihydroxybenzamido)propyl)-2,3-dioxopiperazine-1-carboxamido)acetamido)-7-fluoro-2-hydroxy-3,4-dihydro-2H-benzo[e][1,2]oxaborinine-8-carboxylic acid], for which, in test [2], the IC50 was over 250 µM. Also, the MIC is 16 to 32 µg/mL (≈ 20.6 to 41.2 µM) in test [1] (setting [7]), 16 to 32 µg/mL (≈ 20.6 to 41.2 µM) with N. gonorrhoeae WHO M (setting [8]), over 64 µg/mL in the test with N. gonorrhoeae WHO Z (setting [9]) and over 64 µg/mL in the test on N. gonorrhoeae WHO Q (setting [10]).
